Assay results from patent US12534477B2, “Compound having KHK inhibitory effect” (HANGZHOU ZHONGMEIHUADONG PHARMACEUTICAL CO., LTD., priority 2019, dated 2026).

What was measured:
[1] = Pharmacokinetic evaluation in SD rats; format: in vivo; conditions: rat, plasma
Procedure: In vivo pharmacokinetics of compounds in SD rats were tested.
Pharmacokinetic profiles in rodents following intravenous and oral administration of the compounds were tested by standard protocols. In the experiment, candidate compounds were formulated as clear solutions or homogeneous suspensions, and were administered to rats by single intravenous injection (IV, 1 mpk) and oral administration (PO, 3 mpk). The vehicle for intravenous injection was a certain proportion of PEG400 in water, and the vehicle for oral administration was a certain proportion of methylcellulose and Tween 80 in water. Whole blood was collected, and plasma was prepared. Drug concentration was analyzed by LC-MS/MS, and pharmacokinetic parameters were calculated by Phoenix WinNonlin software.

[2] = target: CYP2D6 (Homo sapiens (Human), UniProt P10635); experiment: Inhibitory activity on human liver microsomal cytochrome P450 isozymes; format: in vitro ADME; conditions: human liver microsomes
Procedure: (§1) The inhibitory effect of test compounds on the activity of human hepatic microsomal cytochrome P450 isozymes (CYP1A2, CYP2C9, CYP2C19, CYP2D6 and CYP3A4) was determined.
(§2) First, the test compound (10 mM) was diluted in gradient to prepare working solutions (100×final concentration) with working solution concentrations: 5, 1.5, 0.5, 0.15, 0.05, 0.015, 0.005 mM, respectively, and at the same time, working solutions of each positive inhibitor of P450 isozymes (CYP1A2, CYP2C9, CYP2C19, CYP2D6 and CYP3A4) and its specific substrate mixture were prepared. Human liver microsomes frozen in a −80° C. refrigerator were thawed on ice, and diluted with PB (phosphate buffer) after all the human liver microsomes were dissolved, to prepare a working solution at a certain concentration (0.253 mg/mL). 20 μl substrate mixture was added to the reaction plate (20 μL PB was added to the Blank wells) while 158 μL human liver microsome working solution was added to the reaction plate which was placed on ice for later use. At this time, 2 μL of each concentration of the test compound (N=1) and the specific inhibitor (N=2) were added to the corresponding wells, and the corresponding organic solvents were added to the groups without inhibitors (the test compound or the positive inhibitor) as control samples (1:1 DMSO:MeOH for the test compound control sample, and 1:9 DMSO:MeOH for the positive control sample). After pre-incubation in 37° C. water bath for 10 min, 20 μL coenzyme factor (NADPH) solution was added to the reaction plate, and incubated in 37° C. water bath for 10 min. 400 μL cold acetonitrile solution (200 ng/mL Tolbutamide and Labetalol as the internal standard) was added to stop the reaction. The reaction plate was placed on a shaker and shaken for 10 min. The mixture was centrifuged at 4,000 rpm for 20 min, and 200 μl the supernatant was added to 100 μL water for sample dilution. Finally, the plate was sealed, shaken, mixed well and detected by LC/MS/MS.

[3] = target: CYP2C19 (Homo sapiens (Human), UniProt P33261); experiment: as above; format: in vitro ADME; conditions: human liver microsomes
Procedure: as §1, §2

[4] = target: CYP2C9 (Homo sapiens (Human), UniProt P11712); experiment: as above; format: in vitro ADME; conditions: human liver microsomes
Procedure: as §1, §2

[5] = target: CYP3A4 (Homo sapiens (Human), UniProt P08684); experiment: as above; format: in vitro ADME; conditions: human liver microsomes
Procedure: as §1, §2

Sequence of CYP2C9 (P11712 whole entry): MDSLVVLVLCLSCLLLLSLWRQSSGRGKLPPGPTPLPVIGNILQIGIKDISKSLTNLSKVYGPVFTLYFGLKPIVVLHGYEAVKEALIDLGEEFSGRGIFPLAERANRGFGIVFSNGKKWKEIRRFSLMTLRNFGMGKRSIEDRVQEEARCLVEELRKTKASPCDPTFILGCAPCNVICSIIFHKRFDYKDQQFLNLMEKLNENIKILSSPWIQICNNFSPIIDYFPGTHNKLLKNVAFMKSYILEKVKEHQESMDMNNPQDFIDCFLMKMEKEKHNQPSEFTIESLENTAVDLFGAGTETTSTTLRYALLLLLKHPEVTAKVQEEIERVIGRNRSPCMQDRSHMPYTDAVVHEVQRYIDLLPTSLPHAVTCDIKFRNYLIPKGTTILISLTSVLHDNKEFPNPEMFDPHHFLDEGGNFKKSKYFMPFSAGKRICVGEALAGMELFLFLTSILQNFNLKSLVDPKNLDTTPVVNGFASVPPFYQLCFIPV
Sequence of CYP2C19 (P33261 whole entry): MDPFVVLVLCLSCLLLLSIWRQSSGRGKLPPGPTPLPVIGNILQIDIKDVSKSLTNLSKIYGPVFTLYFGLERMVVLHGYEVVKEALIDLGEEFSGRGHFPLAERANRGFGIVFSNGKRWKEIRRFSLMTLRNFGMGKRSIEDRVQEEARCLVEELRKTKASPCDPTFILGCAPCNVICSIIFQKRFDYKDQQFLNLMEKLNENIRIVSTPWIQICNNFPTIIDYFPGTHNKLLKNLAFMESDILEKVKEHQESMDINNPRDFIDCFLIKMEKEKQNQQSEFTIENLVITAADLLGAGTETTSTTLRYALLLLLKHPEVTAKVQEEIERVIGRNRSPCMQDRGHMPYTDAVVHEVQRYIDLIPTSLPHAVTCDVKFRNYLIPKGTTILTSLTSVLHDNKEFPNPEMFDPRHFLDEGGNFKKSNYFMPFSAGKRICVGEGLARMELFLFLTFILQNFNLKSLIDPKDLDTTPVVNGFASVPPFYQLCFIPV
Sequence of CYP3A4 (P08684 whole entry): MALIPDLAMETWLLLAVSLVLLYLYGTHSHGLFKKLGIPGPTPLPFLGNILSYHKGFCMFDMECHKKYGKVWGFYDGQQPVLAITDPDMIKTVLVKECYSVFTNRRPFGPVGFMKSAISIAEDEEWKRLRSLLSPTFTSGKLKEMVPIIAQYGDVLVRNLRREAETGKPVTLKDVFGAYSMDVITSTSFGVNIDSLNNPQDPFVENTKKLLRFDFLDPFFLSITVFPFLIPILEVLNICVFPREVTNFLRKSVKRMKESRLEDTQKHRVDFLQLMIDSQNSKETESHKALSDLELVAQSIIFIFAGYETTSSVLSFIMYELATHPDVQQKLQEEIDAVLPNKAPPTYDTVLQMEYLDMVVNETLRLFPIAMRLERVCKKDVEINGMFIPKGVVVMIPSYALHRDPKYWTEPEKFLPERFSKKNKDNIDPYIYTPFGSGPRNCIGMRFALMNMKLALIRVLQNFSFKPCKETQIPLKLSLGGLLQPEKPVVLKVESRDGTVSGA
Sequence of CYP2D6 (P10635 whole entry): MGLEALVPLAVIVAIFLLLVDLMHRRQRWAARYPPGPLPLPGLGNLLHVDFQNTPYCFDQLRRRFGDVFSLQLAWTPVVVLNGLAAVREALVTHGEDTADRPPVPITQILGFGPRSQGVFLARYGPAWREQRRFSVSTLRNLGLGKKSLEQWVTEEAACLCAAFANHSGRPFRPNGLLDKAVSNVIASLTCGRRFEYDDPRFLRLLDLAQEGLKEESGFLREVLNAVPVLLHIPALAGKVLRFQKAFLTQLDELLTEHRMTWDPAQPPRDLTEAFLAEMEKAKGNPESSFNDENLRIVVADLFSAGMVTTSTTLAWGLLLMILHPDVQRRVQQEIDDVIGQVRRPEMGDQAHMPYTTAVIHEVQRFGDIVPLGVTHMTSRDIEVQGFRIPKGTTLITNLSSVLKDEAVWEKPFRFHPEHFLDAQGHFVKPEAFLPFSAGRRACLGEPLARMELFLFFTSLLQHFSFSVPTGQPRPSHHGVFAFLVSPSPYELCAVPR

C[C@H]1CCN1c1nc(N2C[C@@H]3[C@@H](CC(=O)O)[C@@H]3C2)c2ccsc2n1 [WX004]
clearance ([1]; 1 mg/kg, IV 1 mpk, read-out: Clearance rate): 1.21 mL/min/kg | bioavailability ([1]; 3 mg/kg, IV 1 mpk, PO 3 mpk, read-out: Bioavailability F): 80% | AUC ([1]; 3 mg/kg, PO 3 mpk, read-out: Integral concentration AUC for PO): 64.5 µM·h | half-life ([1]; IV 1 mpk and PO 3 mpk study, read-out: Half-life T1/2 (converted)): 2.96 h | IC50 [2]: > 50 µM | IC50 [3]: > 50 µM | IC50 [4]: > 50 µM | IC50 [5]: > 50 µM
